# Article PMC8588271 (Molecules, 2021)
# “Also recorded” adds a separate entry of the source.
# What was measured:
# [1] = target: T1, BACE-1 (Homo sapiens, UniProt P56817); assay: BACE-1 FRET inhibition assay; type: biochemical; settings: FRET kit, 60 min room temperature, triplicate, tested up to 50 µM
# T1 construct: purchased PanVera (Madison, WI, USA) / Thermo Fisher Scientific P2985
# Method: The experiments were each performed in triplicates for all of the compounds.
# A BACE-1 inhibition assay was conducted using a β-Secretase FRET kit (BACE-1, Thermo Fisher Sientific, San Diego, CA, USA) according to manufacturer instructions. […] The sample was diluted further in assay buffer (final concentrations of 50, 25, 12.5, 6.25, 3.12, 1.56, 0.78, 0.39, 0.2, and 0.1 µM in each well) and black 96-well microplates were mixed with 10 µL of BACE-1 substrate. Then, 10 µL of 3 × BACE-1 enzyme was added to each well to start the reaction. Plates were incubated at room temperature in the dark for 60 min. After incubation, 10 µL of 2.5 mM sodium acetate was added to each well to stop the reaction. Finally, multiwell spectrofluorometer instruments were used for a multimode plate reader (Multistkan^TM GO, Thermo Scientific, Waltham, MA, USA) at an excitation wavelength of 545 nm and an emission wavelength of 585 nm. The half-maximal inhibitory concentration (IC50) was calculated by plotting the obtained relative fluorescence unit per hour (RFU/h) against the logarithmic of the inhibitor concentration. All determinations were performed in triplicate.
# [2] = tested on: RAW 264.7 cells; assay: Nitric oxide production (Griess reagent) in LPS-stimulated cells; type: cell-based, murine; settings: RAW 264.7, 1 h pretreatment, LPS 0.5 μg/mL 24 h
# Method: (§1) The macrophage-like murine cell line RAW 264.7 (KCLB number 40071; Korean Cell Line Bank, Seoul, Korea) was cultured in Dulbecco’s Modified Eagle Medium (DMEM, Sigma-Aldrich, St. Louis, MO, USA) supplemented with 10% heat-inactivated fetal bovine serum (FBS, Invitrogen, Burlington, ON, Canada) and 1% (w/v) antibiotic–antimycotic solution (Invitrogen, Grand Island, NY, USA) at 5% CO2 and 37 °C.
# Nitrite accumulation was used as an indicator of NO production in the medium, and the nitrite level was determined by assaying the culture supernatants for nitrite using the Griess reagent (1% sulfanilamide, 0.1% N-(1-naphathyl)-ethylenediamine dihydrochloride, and 5% phosphoric acid). […] Then, 100 μL of cell culture supernatants were mixed with 100 μL of Griess reagent in a 96-well plate. Sodium nitrite was used to generate a standard curve and the concentration of nitrite was then measured by the absorbance at 540 nm using a microplate reader. All determinations were performed in triplicate.
# [3] = DPPH radical scavenging assay (in vitro); settings: 0.1 mM DPPH in MeOH, 30 min dark, room temperature, 540 nm
# [4] = Stability in aqueous solution by HPLC purity; type: physicochemical; settings: 10 mM in water, room temperature, HPLC UV 254 nm; ramalin started at 98%
# From the text: Therefore, to improve its stability and BBB penetration capacity, its structure was modified by replacing the phenolic hydroxyl groups at position two with either a methyl group or a fluorine atom and by changing their positions. Thus, several derivatives were obtained. Specifically, RA-2Me, RA-3Me, and RA-4Me were synthesized by changing the position of the methyl group, which is an electron-donating group, and RA-25Me and RA-34Me, with two methyl groups on the phenyl ring, were synthesized by introducing an extra methyl group. To investigate the effect of fluorine atoms, which are electron-withdrawing as opposed to the methyl group, RA-2F, RA-4F, RA-24F, and RA-pentafluoride (PF) were also successfully synthesized. […] AD-related therapeutic agents are required to penetrate the BBB and reach their target. […] Given that ramalin and its derivatives are water-soluble low-molecular-weight compounds and that their lipophilicities and hydrophilicities balance out, their influence on AlogP, which indicates lipophilicity, was not significant. Additionally, given their PSA values (90 Å^2 < PSA < 140 Å^2), they are considered to be advantageous in terms of BBB penetration.
# [5] = tested on: RAW 264.7 cells; assay: MTT cytotoxicity assay; type: cell-based, murine; settings: RAW 264.7, 24 h
# Method: as §1
# Cell cytotoxicity was determined by an MTT (3-(4,5)-dimethylthiazol-2-yl-2,5-diphenyltetrazolium bromide, Amresco, Solon, OH, USA) colorimetric assay. […] After incubation with test substances, MTT solutions (5 μL of a 5 mg/mL concentration in PBS) were added to the wells and incubated for 4 h at 37 °C. Then, treated with 100 μL of fresh DMSO to dissolve the crystals for 10 min, the cells were detected under a microplate reader (Thermo Scientific Inc., San Diego, CA, USA) to measure the absorbance at 570 nm. Relative cell viability was calculated by comparing the absorbance of the untreated control group. All experiments were performed in triplicate.
# T1 sequence (P56817 46-501): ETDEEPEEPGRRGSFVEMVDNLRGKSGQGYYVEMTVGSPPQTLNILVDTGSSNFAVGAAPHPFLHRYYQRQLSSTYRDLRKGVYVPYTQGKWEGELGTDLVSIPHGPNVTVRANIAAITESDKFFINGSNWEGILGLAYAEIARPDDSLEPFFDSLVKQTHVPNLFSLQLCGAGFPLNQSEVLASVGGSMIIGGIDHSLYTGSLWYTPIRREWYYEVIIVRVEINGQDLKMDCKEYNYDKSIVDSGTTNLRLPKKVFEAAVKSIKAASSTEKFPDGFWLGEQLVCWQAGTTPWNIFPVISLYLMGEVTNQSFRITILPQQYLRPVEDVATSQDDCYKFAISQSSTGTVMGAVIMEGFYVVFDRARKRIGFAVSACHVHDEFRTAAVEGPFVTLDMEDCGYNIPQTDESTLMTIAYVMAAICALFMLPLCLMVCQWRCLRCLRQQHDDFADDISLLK
IC50 [1],IC50 [3],Purity after 14 h in water [4],SMILES,NO inhibitory (anti-inflammatory) activity [2],"Cytotoxicity (cell viability, MTT) [5]"
22.5 ± 0.69 µM,5.3 µM,,"Cc1cccc(NNC(=O)CC[C@H](N)C(=O)O)c1 [RA-3Me, N^5-(m-Tolylamino)-L-glutamine]",weak anti-inflammatory effects,
18.8 ± 3.86 µM,4.42 µM,,"N[C@@H](CCC(=O)NNc1ccccc1F)C(=O)O [RA-2F, N^5-((2-Fluorophenyl)amino)-L-glutamine]",concentration-dependent NO inhibition,
14.6 ± 6.08 µM,,,"N[C@@H](CCC(=O)NNc1c(F)c(F)c(F)c(F)c1F)C(=O)O [RA-PF, N^5-((Perfluorophenyl)amino)-L-glutamine]",concentration-dependent NO inhibition,
20.1 ± 4.78 µM,4.16 µM,,"N[C@@H](CCC(=O)NNc1ccc(F)cc1)C(=O)O [RA-4F, N^5-((4-Fluorophenyl)amino)-L-glutamine]",concentration-dependent NO inhibition,
13.1 ± 1.52 µM,4.46 µM,,"Cc1ccc(NNC(=O)CC[C@H](N)C(=O)O)cc1C [RA-34Me, N^5-((3,4-Dimethylphenyl)amino)-L-glutamine]",concentration-dependent NO inhibition,
15 ± 4.92 µM,2.79 µM,,"Cc1ccccc1NNC(=O)CC[C@H](N)C(=O)O [RA-2Me, N^5-(o-Tolylamino)-L-glutamine]",weak anti-inflammatory effects,
,,83%,"NC(CCC(=O)NNc1ccccc1O)C(=O)O (stereo not drawn) [Ramalin, ramalin]",,
,5.32 µM,,"N[C@@H](CCC(=O)NNc1ccc(F)cc1F)C(=O)O [RA-24F, N^5-((2,4-Difluorophenyl)amino)-L-glutamine]",concentration-dependent NO inhibition; also recorded: stronger anti-inflammatory effect than ramalin,without cytotoxicity
9.81 ± 1.21 µM,4.5 µM,,"Cc1ccc(C)c(NNC(=O)CC[C@H](N)C(=O)O)c1 [RA-25Me, N^5-((2,5-Dimethylphenyl)amino)-L-glutamine]",concentration-dependent NO inhibition,

SMILES,IC50 [1],IC50 [3],Purity after 14 h in water [4],NO inhibitory (anti-inflammatory) activity [2],"Cytotoxicity (cell viability, MTT) [5]"
"Cc1ccc(NNC(=O)CC[C@H](N)C(=O)O)cc1 [RA-4Me, N^5-(p-Tolylamino)-L-glutamine]",13 ± 1.62 µM,3.91 µM,,weak anti-inflammatory effects,
